Usually pIC50 stands for −log10 of the IC50, conventionally taken in molar units. A low value points to a large IC50.

pIC50: −log10 of the molar value. A value given as a limit tells only on which side of the number the result lay.

This note sets out measurements from ChEMBL document CHEMBL1130751, “Synthesis and 5 alpha-reductase inhibitory activity of 8-substituted benzo[f]quinolinones derived from palladium mediated coupling reactions” (Bioorg Med Chem Lett, 1998).

In assay [1] the target is T1, 3-oxo-5-alpha-steroid 4-dehydrogenase 2 (Homo sapiens, UniProt P31213).
T1 sequence (P31213 whole entry): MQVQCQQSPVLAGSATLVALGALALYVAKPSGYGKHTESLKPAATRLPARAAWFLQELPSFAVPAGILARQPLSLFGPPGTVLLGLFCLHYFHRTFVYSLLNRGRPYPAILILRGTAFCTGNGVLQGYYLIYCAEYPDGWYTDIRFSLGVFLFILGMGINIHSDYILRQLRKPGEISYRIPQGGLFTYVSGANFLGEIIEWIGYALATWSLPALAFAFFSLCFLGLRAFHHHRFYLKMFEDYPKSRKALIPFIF
Nature of the assay: Inhibitory activity against Steroid 5-alpha-reductase type 2 as [3H]T to [3H]-DHT conversion human prostate nuclear membrane. In kind it is tissue-based, Prostate gland.

Assay [2] deals with T2, 3-oxo-5-alpha-steroid 4-dehydrogenase 1 (Homo sapiens, UniProt P18405).
T2 sequence (P18405 whole entry): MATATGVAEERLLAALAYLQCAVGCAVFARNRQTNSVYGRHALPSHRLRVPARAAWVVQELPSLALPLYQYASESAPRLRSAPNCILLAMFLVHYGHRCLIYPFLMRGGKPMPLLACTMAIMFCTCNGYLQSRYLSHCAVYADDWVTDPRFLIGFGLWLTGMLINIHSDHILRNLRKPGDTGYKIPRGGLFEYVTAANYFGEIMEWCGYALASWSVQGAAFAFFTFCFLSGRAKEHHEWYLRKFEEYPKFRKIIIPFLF
Nature of the assay: Inhibitory activity against Steroid 5-alpha-reductase type 1 enzyme based on the conversion of [3H]T to [3H]-DHT in nuclear membrane preparations from human scalp. In kind it is cell membranes.

For assay [3], the target named is T2, 3-oxo-5-alpha-steroid 4-dehydrogenase 1. Nature of the assay: Inhibitory activity against Steroid 5-alpha-reductase type I enzyme based on the conversion of [3H]-T to [3H]DHT in nuclear membrane preparations from human scalp. In kind it is cell membranes.

`CN1C(=O)CC[C@]2(C)c3ccc(CC(N)=O)cc3CC[C@@H]12`: the pIC50 in assay [1] and in assay [2] was below 5.00 each time.

Turning to `CN1C(=O)CC[C@]2(C)c3ccc(/C=C/c4ccc5ccccc5n4)cc3CC[C@@H]12`, the pIC50 was 6.26 in assay [1] and 7.49 in assay [2].

On to `CN1C(=O)CC[C@]2(C)c3ccc(/C=C/c4cnc5ccccc5c4)cc3CC[C@@H]12`, for which the values for the pIC50 in assay [1] and in assay [2] were 6.49 and 8.47, respectively.

On to `CN1C(=O)CC[C@]2(C)c3ccc(C#Cc4ccccc4)cc3CC[C@@H]12`, for which the negative logarithm of the IC50 (pIC50) in assay [3] is 7.68; in assay [1], 7.28.

Regarding `CN1C(=O)CC[C@]2(C)c3ccc(-c4ccco4)cc3CC[C@@H]12`, the pIC50 in assay [1] was below 5.00; in assay [2] it was 7.23.

Regarding `CN1C(=O)CC[C@]2(C)c3ccc(/C=C\c4ccccc4)cc3CC[C@@H]12`, the pIC50 in assay [3] was 8.22; in assay [1], 5.85.

On to `CN1C(=O)CC[C@]2(C)c3ccc(CC(=O)NC(C)(C)C)cc3CC[C@@H]12`, for which the pIC50 in assay [1] and in assay [2] was below 5.00 in each case.

In the case of `CN1C(=O)CC[C@]2(C)c3ccc(CC(=O)Nc4ccccc4)cc3CC[C@@H]12`, the figures for the negative logarithm of the IC50 (pIC50) in assay [1] and in assay [2] were 6.28 and below 5.00, respectively.

For `CN1C(=O)CC[C@]2(C)c3ccc(/C=C/c4ccccc4)cc3CC[C@@H]12`, the pIC50 is 7.64 in assay [3] and 6.74 in assay [1].

Molecule `CN1C(=O)CC[C@]2(C)c3ccc(CC(=O)O)cc3CC[C@@H]12` gave a negative logarithm of the IC50 (pIC50) in assay [1] of 6.06.

With `CN1C(=O)CC[C@]2(C)c3ccc(/C=C/c4cncc5ccccc45)cc3CC[C@@H]12`, the results for the pIC50 in assay [1] and in assay [2] were 5.87 and 7.20, respectively.

As for `CCN(CC)C(=O)Cc1ccc2c(c1)CC[C@H]1N(C)C(=O)CC[C@]21C`, the pIC50 in assay [1] and in assay [2] was below 5.00 in each case.

Turning to `CN1C(=O)CC[C@]2(C)c3ccc(-c4cccs4)cc3CC[C@@H]12`, the pIC50 in assay [1] and in assay [2] was below 5.00 throughout.
